Experimental data reported in patent publication US20090275503A1, “DIASTEREOMERIC PEPTIDES FOR MODULATING T CELL IMMUNITY” (Yeda Research and Developent Co., Ltd. at the Weizman …, priority 2005, published 2009).
Non-standard residues stand in square brackets, D forms with d. Residues, ends and D or L forms follow the SMILES beside them. No end group written: not given here.

Tests used:
[1] = tested on: LNC from Mt-immunized rats; assay: T-cell proliferation of LNC or A2b T cell line (Part B, amidated peptides); format: cell-based, rat; conditions: for Inhibition of T-cell proliferative responses to PPD and to Mt176-90: amidated peptides, LNC, 72 hr
cells = assay: Cytotoxicity when incubated with cells (Part B); format: cell-based, rat
Lewis rats [2] = assay: Adjuvant arthritis (AA) in Lewis rats (Part B); format: in vivo, rat; conditions: for Mean maximum AA score: 100 μg amidated peptide per rat at AA induction, maximum possible score 16; for Effect on adjuvant arthritis (clinical score and ankle swelling): 100 μg amidated peptide per rat with the antigen at AA induction
Method: (§1) To test the effect of CP on T-cell activation in vivo, we used AA as a model system. AA was induced by injecting 50 μl of Mt suspended in IFA (0.5 mg/ml) at the base of the tail. At the time of AA induction, each rat also received 100 μg of L-CP, D-CP or 2G CP control peptide (or PBS) dissolved in 50 μl of IFA and mixed with Mt/IFA used to induce AA. The day of AA induction was designated as day 0. Disease severity was assessed by direct observation of all 4 limbs in each animal. A relative score between 0 and 4 was assigned to each limb, based on the degree of joint inflammation, redness and deformity; thus the maximum possible score for an individual animal was 16. The mean AA score (±SEM) is shown for each experimental group. Arthritis was also quantified by measuring hind limb diameter with a caliper. Measurements were taken on the day of the induction of AA and 26 days later (at the peak of AA); the results are presented as the mean±SEM of the difference between the two values for all the animals in each group. The person who scored the disease was blinded to the identity of the groups.
To test the inhibitory effects of CP on the activation of specific T cells in vivo, we used the adjuvant arthritis (AA) model. Immunization of Lewis rats with Mt in oil triggers AA, an experimental autoimmune disease driven by Mt-specific T cells cross-reactive with self-antigens. Mt176-90-specific T cells are detectable upon induction of AA; indeed the A2b T-cell clone cross-reacts with cartilage and mediates AA. Since L and D-CP inhibited the T-cell response of primed LNC and of clone A2b to PPD and […] in vitro (FIG. 9), we also investigated the effects of L- or D-CP on the in vivo activation of the T cells that drive AA. […] The mean maximum score was 12±0.3 in the control-treated rats, compared with 6±0.7 in the D-CP-treated rats and 7.3±0.7 in the L-CP-treated rats (p<0.05 for the L and D-CP groups compared to the control groups).

Lewis rats [3] = assay: Delayed type hypersensitivity (DTH) to PPD in AA rats (Part B); format: in vivo, rat; conditions: 16 days after AA induction
Method: Twenty μl of PPD (0.5 mg/ml in PBS) were injected intradermally into the pinna of the right ear on day 16 after AA induction; 20 μl of sterile PBS were injected in the left ear as control. The thickness of the ear was measured 48 hr later using a vernier caliper and expressed as the difference between the right and the left ear.
The activity of the T cells that mediate AA can also be detected in vivo by studying the delayed type hypersensitivity (DTH) response to PPD. We studied the DTH response to PPD 16 days after AA induction in rats treated with the three peptides.

BALB/c mice = assay: Delayed type hypersensitivity to oxazalone in mice; format: in vivo, mouse; conditions: topical treatment 1 hr after oxazalone challenge; peptides 150 μg (6 mg/kg) in DMSO; measured following day
Method: Groups of 5 female inbred BALB/c mice (The Jackson Laboratory) were sensitized on the shaved abdominal skin with 100 μl of 2% Oxazalone dissolved in acetone/olive oil [4:1 (vol/vol)] applied topically. DTH sensitivity was elicited 5 days later by challenging the mice with 20 μl of 0.5% Oxazalone in acetone/olive oil, 10 μl administered topically to each side of the ear. A constant area of the ear was measured immediately before challenge and 24 h after challenge with a Mitutoyo engineer's micrometer. The individual measuring ear swelling was unaware of the identity of the groups of mice. The DTH reaction is presented as the increment of ear swelling after challenge expressed as the mean±SEM in units of 10-2 mm. One hour after the challenge the mice's ears were treated topically with either all-L CP or with 2D-CP, both dissolved in 40 μl DMSO. The activity of the peptide treatments was compared to treatment with DMSO alone for “untreated mice” and Dexamethasone (100 μg/ml in saline) as a positive control.
To test whether TCR trans-membrane peptides could inhibit the elicitation of existing DTH reactivity, groups of naïve BALB/c mice were sensitized to 2% oxazalone. Five days later, the mice were challenged with 0.5% oxazalone administered to the ear. An hour after the challenge, the mice were treated with Dimethylsulfoxide (DMSO), all-L CP 150 μg (6 mg/kg) in DMSO, 2D-CP 150 μg (6 mg/kg) in DMSO, or dexamethasone, applied topically. On the following day, ear thickness was measured the swelling of DMSO treated mice (0.33±0.01 mm) was compared to that of mice treated with all-L CP (0.30±0.01 mm), 2D-CP (0.27±0.01 mm) and Dexamethasone (0.15±0.02 mm). […] Thus, 2D-CP can inhibit a T-cell mediated immune reaction in subjects already sensitized to the antigen.

rat TCR = assay: Co-immunoprecipitation of fluorescence-labeled peptides with TCR molecules; format: binding; conditions: Rho-labeled peptides
Method: Activated A2b T cells (2×10^6) were cultured for 1 hr at 37° C. in the presence of CP or 2D-CP (25 μg/ml), or 2G-CP, and lysed for 15 min on ice in 0.1 ml lysis buffer (Adachi et al., 1996). Insoluble material was removed by centrifugation at 10.000 g for 10 min at 4° C. The lysate was then incubated overnight with Protein A-plus Agarose beads (Santa Cruz Biotechnology Inc., Santa Cruz, Calif., USA) bound to antibodies to the rat TCR or MHC class 1. The antibodies reactive against the rat TCR (clone R73) or HSP60 (clone LKI) were purified from the respective hybridomas at our lab; antibodies to rat CD28, actin and the rat MHC class 1 were purchased from Serotec (Oxford, UK). After an overnight incubation at 4° C., the beads were washed with lysis buffer, boiled for 10 minutes and the protein supernatant run in a 4-20% SDS-PAGE. The presence of co-immunoprecipitated peptide was detected by the Typhoon 9400 variable mode imager.
Next, co-immunoprecipitation experiments were performed. The affinity of the TCR/CP, the TCR/2D-CP and TCR/2G-CP interactions were compared by performing a series of co-precipitation experiments using different concentrations of Rho-labeled CP, 2D-CP and 2G-CP peptides.

LNC from Mt primed rats = assay: T-cell proliferation of LNC from Mt-immunized rats activated with PPD or Mt176-90 (Part A); format: cell-based, rat; conditions: LNC, 72 hr, 3H-thymidine incorporation
Lewis rats [4] = assay: Adjuvant arthritis (AA) in Lewis rats (Part A); format: in vivo, rat
Method: as §1, with “the experimental T-cell mediated autoimmune disease adjuvant arthritis (AA) was used.” for “we used AA as a model system.”, “(10” for “(0.5”, “all-L CP, 2D-CP” for “L-CP, D-CP”, “16 (Quintana et al., 2002).” for “16.”
Next, the contribution of the secondary structure and the side-chains to the inhibitory effects of CP on T cell activation In vivo was analyzed, using the experimental autoimmune disease Adjuvant Arthritis (AA). Immunization of Lewis rats with Mt triggers AA, an autoimmune disease driven by Mt-specific T cells that cross-react with self-antigen (Holoshitz et al., 1984; Holoshitz et al., 1983). PPD and Mt176-90 are targeted by the arthritogenic T-cell response (Anderton et al., 1994); indeed immunomodulatory therapies that inhibit the progression of arthritis have been associated with a decreased T cell response to PPD and Mt176-90 and with a diminished delayed type hypersensitivity (DTH) response to PPD (van Eden et al., 1985).

Lewis rats [5] = assay: Delayed type hypersensitivity to PPD in AA rats (Part A); format: in vivo, rat; conditions: 16 days after AA induction, ear thickness 48 hr after PPD
Method: Twenty μl of PPD (0.5 mg/ml in PBS) were injected intradermally into the pinna of the right ear of each rat on day 16 after AA induction; 20 μl of sterile PBS were injected in the left ear as control. The thickness of the ear was measured 48 hr later using a vernier caliper and expressed as the difference between the right and the left ear (Quintana et al., 2005).

target cells = assay: Cytotoxic effect on the target cells (Part A); conditions: incubated with the target cells

Molecule	Inhibition of T-cell proliferative responses to PPD and to Mt176-90 [1]	Cytotoxicity (cells)	Mean maximum AA score (Lewis rats [2])	Effect on adjuvant arthritis (clinical score and ankle swelling) (Lewis rats [2])	Reduction in the DTH response to PPD (Lewis rats [3])	Inhibition of T-cell proliferation compared with L-CP ([1]; at the lower concentrations)	Ear swelling (BALB/c mice)	Co-precipitation with the TCR (rat TCR; activated A2b T cells)	Affinity of TCR interaction compared with TCR/2D-CP (rat TCR; different concentrations)	Inhibition of T-cell proliferation to PPD and to Mt176-90 (LNC from Mt primed rats)	Mean maximum AA score (Lewis rats [4]; 100 μg peptide per rat at AA induction, maximum possible score 16)	Effect on adjuvant arthritis (clinical score and paw swelling) (Lewis rats [4]; 100 μg peptide per rat with Mt at the time of AA induction)	Reduction in the DTH response to PPD (Lewis rats [5])	Cytotoxic effect (target cells)
GLRILLLKV-NH2 [L-CP, X-GLRILLLKV-NH2, reference compound]	inhibited the T-cell proliferative responses to PPD and to Mt176-90 in a dose-dependent manner	showed no cytotoxicity	7.3±0.7	significantly milder arthritis	39%	–	–	–	–	–	–	–	–	–
CC[C@@H](C)[C@@H](NC(=O)[C@@H](CCCNC(=N)N)NC(=O)[C@@H](CC(C)C)NC(=O)CN)C(=O)N[C@H](CC(C)C)C(=O)N[C@H](CC(C)C)C(=O)N[C@H](CC(C)C)C(=O)N[C@H](CCCCN)C(=O)N[C@@H](C(N)=O)C(C)C [D-CP, X-GLRILLLKV-NH2] (H-G[dL][dR][dI][dL][dL][dL][dK][dV]-NH2)	inhibited the T-cell proliferative responses to PPD and to Mt176-90 in a dose-dependent manner	showed no cytotoxicity	6±0.7	significantly milder arthritis	48%	consistently higher	–	–	–	–	–	–	–	–
C[C@@H]1C[C@H]2[C@@H]3CCC4=CC(=O)C=C[C@]4(C)[C@@]3(F)[C@@H](O)C[C@]2(C)[C@@]1(O)C(=O)CO [Dexamethasone, reference compound]	–	–	–	–	–	–	0.15±0.02 mm	–	–	–	–	–	–	–
GLRILLLKV [all-L CP] (GLRILLLKV-NH2; listed as Homo sapiens) [reference compound]	–	–	–	–	–	–	0.30±0.01 mm	can be co-precipitated with the TCR	higher affinity	inhibited T-cell proliferation to PPD and to Mt176-90 in a dose-dependent manner	7.7±0.7	significantly milder arthritis	39%	None of the peptides (all-L CP, 2D-CP or 2G CP) had a cytotoxic effect
